The source of these data is patent publication US20240158446A1, “CYCLIC COMPOUND HAVING SELECTIVE INHIBITORY ACTION ON KRAS OVER HRAS AND NRAS” (CHUGAI SEIYAKU KABUSHIKI KAISHA, priority 2021, published 2024).

Like-named read-outs stand apart in the source and are kept apart here. Where a SMILES comes first, the peptide text is derived from it. Bridges are numbered along the chain shown (N, C = ends). [ ]: non-standard residue; d: D form. hPhe(3,5-F2-4-CF3) = N[C@@H](CCc1cc(F)c(C(F)(F)F)c(F)c1)C(=O)O; hPhe(3-Cl-4-CF3) = N[C@@H](CCc1ccc(C(F)(F)F)c(Cl)c1)C(=O)O; NPrPhe(4-CF3) = CCCN[C@@H](Cc1ccc(C(F)(F)F)cc1)C(=O)O; NMeGly(cPent) = CN[C@H](C(=O)O)C1CCCC1; αMeI = CC[C@H](C)[C@](C)(N)C(=O)O; Hyp = O=C(O)[C@@H]1C[C@@H](O)CN1; NMeD = CN[C@@H](CC(=O)O)C(=O)O; NMeL = CN[C@@H](CC(C)C)C(=O)O; Ac5c = NC1(C(=O)O)CCCC1; NEtG = CCNCC(=O)O; Sar = CNCC(=O)O

Assay [1] has as its target GDP-bound NRAS wild-type protein (Homo sapiens, UniProt P01111). As to the kind of experiment: Binding to NRAS by surface plasmon resonance (SPR), Single Cycle Kinetics. Conditions: SPR, GDP-bound NRAS wild-type protein vs GDP-bound KRAS wild-type protein.
Assay [2] has as its target GDP-bound HRAS wild-type protein (Homo sapiens, UniProt P01112). In words: Binding to HRAS by surface plasmon resonance (SPR), Single Cycle Kinetics. The note with it: SPR, GDP-bound HRAS wild-type protein vs GDP-bound KRAS wild-type protein. A general note: SPR reads the build-up and loss of mass on a sensor chip optically.
Assay [3] has as its target GDP-bound KRAS wild-type protein (Homo sapiens, UniProt P01116). In words: Binding to KRAS by surface plasmon resonance (SPR), Single Cycle Kinetics. Conditions: GDP-bound KRAS wild-type protein, read-out: KRAS KD.
The mark [4] stands for this setting: SPR Single Cycle Kinetics, 1:1 binding model.

Sequence of GDP-bound NRAS wild-type protein (P01111 whole entry): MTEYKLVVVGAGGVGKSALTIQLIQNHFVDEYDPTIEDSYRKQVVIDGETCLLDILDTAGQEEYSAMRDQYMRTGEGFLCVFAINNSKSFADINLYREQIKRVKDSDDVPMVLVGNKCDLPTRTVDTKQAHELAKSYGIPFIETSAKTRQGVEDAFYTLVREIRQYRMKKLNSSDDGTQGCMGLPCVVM
Sequence of GDP-bound KRAS wild-type protein (P01116 whole entry): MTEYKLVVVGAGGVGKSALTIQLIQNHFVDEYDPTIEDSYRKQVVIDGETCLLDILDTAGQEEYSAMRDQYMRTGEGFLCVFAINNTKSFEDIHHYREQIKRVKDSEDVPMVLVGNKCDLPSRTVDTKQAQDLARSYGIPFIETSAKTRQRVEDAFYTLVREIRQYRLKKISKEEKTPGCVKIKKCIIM
Sequence of GDP-bound HRAS wild-type protein (P01112 whole entry): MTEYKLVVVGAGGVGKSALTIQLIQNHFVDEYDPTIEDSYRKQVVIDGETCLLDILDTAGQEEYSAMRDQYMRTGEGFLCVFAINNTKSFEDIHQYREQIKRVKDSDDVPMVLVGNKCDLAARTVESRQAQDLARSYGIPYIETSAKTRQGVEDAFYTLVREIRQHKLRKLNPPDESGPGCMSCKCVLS

The term Kd denotes the equilibrium constant for the complex coming apart. With `C#CC[C@H]1C(=O)N[C@@H]([C@@H](C)CC)C(=O)N(C)CC(=O)N(C)[C@H]2CCCCN(C2=O)[C@@H](Cc2ccc(C(F)(F)F)cc2)C(=O)N(C)CC(=O)N[C@@H](CCc2cc(F)c(C(F)(F)F)c(F)c2)C(=O)N2C[C@H](OCC)C[C@H]2C(=O)NC2(CCC2)C(=O)N(C)[C@@H](C2CCCC2)C(=O)N(C)[C@H](C(=O)N2CCOCC2)CC(=O)N1C` [PP0711], in assay [1], the “NRAS/KRAS (ratio of KD value with respect to NRAS to KD value with respect to KRAS)” value was “C (A compound having a KD ratio of 0.1 or more and less than 3 is denoted as C)”. Besides, in assay [2], the “HRAS/KRAS (ratio of KD value with respect to HRAS to KD value with respect to KRAS)” value was “B (a compound having 3 or more and less than 10 is denoted as B)”. In addition, the equilibrium dissociation constant (Kd) in assay [3] (setting [4]) worked out at 0.025 nM.
With `CC[C@H](C)[C@@H]1NC(=O)[C@H](C2CC2)N(C)C(=O)C[C@@H](C(=O)N(C)CC)N(C)C(=O)[C@H](C2CCCC2)N(C)C(=O)C2(CCC2)NC(=O)[C@@H]2C[C@H](C)CN2C(=O)[C@H](CCc2ccc(C(F)(F)F)c(OC)c2)NC(=O)CN(C)C(=O)[C@H](Cc2ccc(C(F)(F)F)cc2)N2CC/C=C\C[C@@H](C2=O)N(C)C(=O)CN(C)C1=O` [PP2069], the “NRAS/KRAS (ratio of KD value for NRAS to KD value for KRAS)” value in assay [1] is given as “AA (a compound having 20 or more is denoted as AA)”. Also, in assay [2], the “HRAS/KRAS (ratio of KD value for HRAS to KD value for KRAS)” value was “A (a compound having 10 or more and less than 20 is denoted as A)”. The Kd in assay [3] (SPR, Single Cycle Kinetics) was 0.082 nM.
On to `CCCOC[C@H]1C(=O)N[C@@H]([C@@H](C)CC)C(=O)N2CCC[C@H]2C(=O)N(C)[C@H]2C/C=C\CCN(C2=O)[C@@H](Cc2ccc(C)cc2)C(=O)N(C)CC(=O)N[C@@H](CCc2ccc(C(F)(F)F)c(OC)c2)C(=O)N2C[C@H](OCC)C[C@H]2C(=O)N(C)C2(CCC2)C(=O)N(C)[C@@H](C2CCCC2)C(=O)N(C)[C@H](C(=O)N(C)C)CC(=O)N1C` [PP2334], for which the “NRAS/KRAS (ratio of KD value for NRAS to KD value for KRAS)” value in assay [1] is “A (a compound having 10 or more and less than 20 is denoted as A)”. In addition, in assay [2], the “HRAS/KRAS (ratio of KD value for HRAS to KD value for KRAS)” value was “B (a compound having 3 or more and less than 10 is denoted as B)”. In assay [3] (SPR, Single Cycle Kinetics), the Kd was determined as 0.13 nM.
As to `CCCN1C(=O)CN(C)C(=O)CN(C)C(=O)[C@H]([C@@H](C)CC)NC(=O)[C@H](CC(C)C)N(C)C(=O)C[C@@H](C(=O)N(C)C)N(C)C(=O)[C@H](C2CCCC2)N(C)C(=O)[C@](C)([C@@H](C)CC)NC(=O)[C@@H]2CCCN2C(=O)[C@H](CCc2cc(F)c(C(F)(F)F)c(F)c2)NC(=O)CN(C)C(=O)[C@@H]1Cc1ccc(C(F)(F)F)cc1` [PP0736] ([NMeL]I[Sar][Sar][NPrPhe(4-CF3)][Sar][hPhe(3,5-F2-4-CF3)]P[αMeI][NMeGly(cPent)][NMeD]-NMe2; lactam N-11), the “NRAS/KRAS (ratio of KD value with respect to NRAS to KD value with respect to KRAS)” value in assay [1] is “B (a compound having 3 or more and less than 10 is denoted as B)”. For the same compound, in assay [2], the “HRAS/KRAS (ratio of KD value with respect to HRAS to KD value with respect to KRAS)” value is “C (A compound having a KD ratio of 0.1 or more and less than 3 is denoted as C)”. Also, in assay [3] (setting [4]), the Kd turned out to be 1.8 nM.
With `CCCN1C(=O)CN(C)C(=O)CN(CC)C(=O)[C@H]([C@@H](C)CC)NC(=O)[C@H](CC(C)C)N(C)C(=O)C[C@@H](C(=O)N(C)C)N(C)C(=O)[C@H](C2CCCC2)N(C)C(=O)C2(CCCC2)NC(=O)[C@@H]2C[C@@H](OCC)CN2C(=O)[C@H](CCc2ccc(C(F)(F)F)c(Cl)c2)NC(=O)CN(C)C(=O)[C@@H]1Cc1ccc(C(F)(F)F)cc1` [PP0427] ([NMeL]I[NEtG][Sar][NPrPhe(4-CF3)][Sar][hPhe(3-Cl-4-CF3)][Hyp](Et)[Ac5c][NMeGly(cPent)][NMeD]-NMe2; lactam N-11), the “NRAS/KRAS (ratio of KD value with respect to NRAS to KD value with respect to KRAS)” value in assay [1] was “B (a compound having 3 or more and less than 10 is denoted as B)”. In addition, the “HRAS/KRAS (ratio of KD value with respect to HRAS to KD value with respect to KRAS)” value in assay [2] is “C (A compound having a KD ratio of 0.1 or more and less than 3 is denoted as C)”. In addition, the Kd in assay [3] (setting [4]) came out at 0.11 nM.
`CCO[C@@H]1C[C@H]2C(=O)NC3(CCC3)C(=O)N(C)[C@@H](C3CCCC3)C(=O)N(C)[C@H](C(=O)N(C)C)CC(=O)N(C)[C@@H](CC)C(=O)N[C@@H]([C@@H](C)CC)C(=O)N(CC)CC(=O)N(C)[C@H]3C/C=C\CCN(C3=O)[C@@H](Cc3ccc(C(F)(F)F)cc3)C(=O)N(C)CC(=O)N[C@@H](CCc3cc(F)c(C(F)(F)F)c(F)c3)C(=O)N2C1` [PP1052]: in assay [1], the “NRAS/KRAS (ratio of KD value for NRAS to KD value for KRAS)” value was “A (a compound having 10 or more and less than 20 is denoted as A)”. Also, the “HRAS/KRAS (ratio of KD value for HRAS to KD value for KRAS)” value in assay [2] was “A (a compound having 10 or more and less than 20 is denoted as A)”. The Kd in assay [3] (SPR, Single Cycle Kinetics) was determined as 0.25 nM.
As to `CCO[C@@H]1C[C@H]2C(=O)NC3(CCC3)C(=O)N(C)[C@@H](C(CC)CC)C(=O)N(C)[C@H](C(=O)N(C)CCOC)CC(=O)N(C)[C@@H](CC)C(=O)N[C@@H]([C@@H](C)CC)C(=O)N(C)CC(=O)N(C)[C@H]3C/C=C\CCN(C3=O)[C@@H](Cc3ccc(C(F)(F)F)cc3)C(=O)N(C)CC(=O)N[C@@H](CCc3cc(F)c(C(F)(F)F)c(F)c3)C(=O)N2C1` [PP1330], the “NRAS/KRAS (ratio of KD value for NRAS to KD value for KRAS)” value in assay [1] (KD ratio class) is listed as “AA (a compound having 20 or more is denoted as AA)”. Further, the “HRAS/KRAS (ratio of KD value for HRAS to KD value for KRAS)” value in assay [2] (KD ratio class) is “A (a compound having 10 or more and less than 20 is denoted as A)”. Further, the dissociation constant Kd in assay [3] (SPR, Single Cycle Kinetics, 1:1 binding model) was 0.42 nM.
